Test systems include DLD-1 colon; HOP-62 NSCLC; HT29 colon; K-562 leukemia; LXFL 529 NSCLC; OVCAR-3 ovarian; RPMI-8226 leukemia; SR leukemia; UACC-257 melanoma; UACC-62 melanoma.
Common to all, as to experiment: inhibition of tumour cell growth, NCI panel, 48 h

Structures are written as SMILES.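 Step 1: Grow cells in 96-well plates. Step 2: Expose to compound for 48 hours at 5 concentrations. Step 3: Interpolate endpoints linearly; if unreached, use highest concentration. At the TGI there is no net growth.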

For `CC(C)(C)C(=CS(=O)/N=C/c1ccccc1)C(C)(C)C` (configuration not stated), the TGI in the assay with DLD-1 colon is over 100 µM; with HOP-62 NSCLC it was over 100 µM; with HT29 colon, over 100 µM; in the assay on K-562 leukemia it was 86.4 µM; with LXFL 529 NSCLC it was 76.5 µM; in the assay with OVCAR-3 ovarian it was over 100 µM. In addition, the TGI is 46.3 µM in the assay on RPMI-8226 leukemia, 58.9 µM with SR leukemia and over 100 µM with UACC-257 melanoma.
Consider `C[Si](C)(C)/C=C\CCO`, for which the TGI in the assay on DLD-1 colon, in the assay on HT29 colon, in the assay with K-562 leukemia, with LXFL 529 NSCLC, in the assay on OVCAR-3 ovarian and with RPMI-8226 leukemia was over 100 µM in each case. Also, the TGI in the assay with SR leukemia, in the assay with UACC-257 melanoma and with UACC-62 melanoma was over 100 µM throughout.
Consider `CC(=O)O[C@]1(C)OC(=O)[C@@H](CC(C)C)N1[N+](=O)[O-]`, for which the TGI in the assay on DLD-1 colon, with HOP-62 NSCLC, in the assay with HT29 colon, with K-562 leukemia, with LXFL 529 NSCLC and with OVCAR-3 ovarian was over 100 µM each time. Besides, the TGI in the assay on RPMI-8226 leukemia, with SR leukemia, with UACC-257 melanoma and in the assay on UACC-62 melanoma was over 100 µM in each case.
With `O=C1CC(c2[nH]nc3ccccc23)C(=O)N1c1ccccc1` (configuration not stated), the TGI with DLD-1 colon was over 100 µM; with HOP-62 NSCLC, over 100 µM; in the assay on HT29 colon it was over 100 µM; in the assay with K-562 leukemia, over 80.1 µM; with LXFL 529 NSCLC, over 100 µM; in the assay with OVCAR-3 ovarian, over 100 µM. In addition, the TGI with RPMI-8226 leukemia, with SR leukemia, in the assay on UACC-257 melanoma and in the assay with UACC-62 melanoma was over 100 µM each time.
For `CC(C)OP(=O)(OC(C)C)/C(N)=N/Nc1ccc([N+](=O)[O-])cc1`, the TGI in the assay with DLD-1 colon, with HOP-62 NSCLC, with K-562 leukemia, in the assay on LXFL 529 NSCLC, in the assay with OVCAR-3 ovarian and with RPMI-8226 leukemia was over 100 µM throughout. For the same compound, the TGI in the assay with SR leukemia, in the assay with UACC-257 melanoma and in the assay with UACC-62 melanoma was over 100 µM throughout.
Take `Cc1ccc(S(=O)(=O)c2ccccc2[N+](=O)[O-])cc1`: the TGI in the assay with DLD-1 colon, in the assay with HOP-62 NSCLC, in the assay with HT29 colon, in the assay on K-562 leukemia, in the assay on LXFL 529 NSCLC and with OVCAR-3 ovarian was over 100 µM in each case. For the same compound, the TGI with RPMI-8226 leukemia, in the assay with UACC-257 melanoma and in the assay on UACC-62 melanoma was over 100 µM each time.
On to `O=C1/C(=C/c2ccccc2)CN(C(=O)CCN2CCCC2)C/C1=C\c1ccccc1`, for which the TGI in the assay on DLD-1 colon was found to be 3.12 µM; in the assay with HOP-62 NSCLC it was 16 µM; in the assay on HT29 colon, 2.54 µM; in the assay on K-562 leukemia it was 4.69 µM; in the assay with LXFL 529 NSCLC, 4.36 µM; in the assay on OVCAR-3 ovarian, 7.66 µM. Further, the TGI in the assay on RPMI-8226 leukemia amounted to 2.46 µM; in the assay on SR leukemia, 1.07 µM; in the assay on UACC-257 melanoma it was 6.65 µM; in the assay on UACC-62 melanoma it was 3.45 µM.
Turning to `COc1ccc(C(=O)C(CC2C(=O)NC(=O)NC2=O)c2ccc(OC)cc2)cc1` (configuration not stated), the TGI in the assay on DLD-1 colon, in the assay with HOP-62 NSCLC, in the assay on HT29 colon, in the assay with K-562 leukemia, with LXFL 529 NSCLC and in the assay with OVCAR-3 ovarian was over 100 µM in each case. The TGI in the assay on SR leukemia, in the assay with UACC-257 melanoma and with UACC-62 melanoma was over 100 µM in each case.
With `c1ccc2c(c1)oc1ccc3nsnc3c12`, the TGI with DLD-1 colon, in the assay with HT29 colon, with K-562 leukemia, in the assay on LXFL 529 NSCLC, in the assay with OVCAR-3 ovarian and in the assay on SR leukemia was over 100 µM each time. Besides, the TGI with UACC-257 melanoma and in the assay on UACC-62 melanoma was over 100 µM throughout.
For the compound `COC(=O)c1c2c(cc3c1CC1(Cc4cc5c(c(C(C)=O)c4C1)CCC5)C3)CCC2` (configuration not stated), the TGI in the assay on DLD-1 colon, with HOP-62 NSCLC, in the assay with HT29 colon, in the assay with K-562 leukemia, with LXFL 529 NSCLC and in the assay on OVCAR-3 ovarian was over 100 µM throughout. Also, the TGI in the assay with SR leukemia, in the assay on UACC-257 melanoma and in the assay with UACC-62 melanoma was over 100 µM each time.
Turning to `Cc1cc(N(CCC#N)CCC#N)ccc1N=Nc1ccc(Br)cc1`, the TGI was over 100 µM in the assay on DLD-1 colon; 20.9 µM in the assay on HOP-62 NSCLC; over 100 µM in the assay with HT29 colon; over 100 µM with K-562 leukemia; over 100 µM in the assay on LXFL 529 NSCLC; over 87.2 µM in the assay with OVCAR-3 ovarian. Moreover, the TGI was over 100 µM in the assay on RPMI-8226 leukemia, over 100 µM in the assay on UACC-257 melanoma and over 87.2 µM with UACC-62 melanoma.
As for `CC1=NN(C(=O)c2ccc(Cl)cc2)C(=O)/C1=C/c1ccccc1O`, the TGI in the assay with DLD-1 colon, in the assay on HOP-62 NSCLC, in the assay on HT29 colon, in the assay with K-562 leukemia, in the assay on LXFL 529 NSCLC and in the assay with OVCAR-3 ovarian was over 100 µM each time. Further, the TGI in the assay on RPMI-8226 leukemia, in the assay on UACC-257 melanoma and in the assay on UACC-62 melanoma was over 100 µM each time.
Consider `CCOC(=O)N1CCc2cc(OC)c(OC)cc2/C1=C\c1ccc(OC)c(OC)c1`, for which the TGI in the assay on DLD-1 colon is over 100 µM; in the assay with HOP-62 NSCLC, over 100 µM; in the assay with HT29 colon, 40.8 µM; with K-562 leukemia, over 10 µM; in the assay with LXFL 529 NSCLC, over 100 µM; in the assay on OVCAR-3 ovarian, 82.3 µM. Moreover, the TGI was over 100 µM with RPMI-8226 leukemia, over 100 µM in the assay with SR leukemia, 53.8 µM in the assay with UACC-257 melanoma and 63.4 µM in the assay on UACC-62 melanoma.
For the compound `COC(=O)CC(NC(=O)OCc1ccccc1)C(C(=O)OCc1ccccc1)C(C)(OC)OC` (configuration not stated), the TGI with DLD-1 colon was over 100 µM; in the assay with HOP-62 NSCLC it was over 100 µM; in the assay on HT29 colon, over 100 µM; in the assay with K-562 leukemia, over 100 µM; in the assay with LXFL 529 NSCLC, 57.2 µM; in the assay with OVCAR-3 ovarian, over 100 µM. The TGI is 58.8 µM in the assay on RPMI-8226 leukemia, 53 µM with SR leukemia, 85.6 µM with UACC-257 melanoma and 42.3 µM in the assay with UACC-62 melanoma.
As for `O=C1C=CC(=O)c2c(O)c(NCCOCCO)c(Cl)c(O)c21`, the TGI is 5.51 µM with DLD-1 colon; 34.2 µM in the assay on HOP-62 NSCLC; over 100 µM in the assay on K-562 leukemia; 20.4 µM with LXFL 529 NSCLC; over 100 µM in the assay with RPMI-8226 leukemia; 37.9 µM with SR leukemia. Also, the TGI in the assay on UACC-257 melanoma was 8.34 µM; in the assay on UACC-62 melanoma it was 11.7 µM.
In the case of `CC1CCSC(N(C(=O)N(C)c2ccccc2)c2ccccc2)=N1` (configuration not stated), the TGI in the assay with DLD-1 colon, with HOP-62 NSCLC, in the assay with HT29 colon, in the assay with K-562 leukemia, in the assay with LXFL 529 NSCLC and in the assay on OVCAR-3 ovarian was over 100 µM each time. Also, the TGI with RPMI-8226 leukemia, with UACC-257 melanoma and in the assay with UACC-62 melanoma was over 100 µM in each case.

The values are drawn from PubChem BioAssay (NCI).
